Test results published in DBAASP.
≈ marks a conversion by molar mass, not a printed value.

Assays:
Experiment in all cases: ≥ marks a high value that may be exact or a test limit, other limits are often not marked, values filed in µg/mL are converted to µM
[1] = tested on: Staphylococcus aureus ATCC 6538
[2] = tested on: Pseudomonas aeruginosa ATCC 9027
[3] = tested on: Escherichia coli ATCC 25922
[4] = tested on: Enterococcus faecalis ATCC 29212
Bacillus cereus = tested on: Bacillus cereus
Escherichia coli = tested on: Escherichia coli
[5] = tested on: Klebsiella pneumoniae ATCC 700603
[6] = tested on: Candida albicans ATCC 2002
[7] = tested on: Staphylococcus aureus ATCC 25923
Escherichia coli UB1005 = tested on: Escherichia coli UB1005
[8] = tested on: Pseudomonas aeruginosa PAO1
[9] = tested on: Candida albicans ATCC 10231
[10] = tested on: Staphylococcus aureus ATCC 29213
[11] = tested on: Pseudomonas aeruginosa ATCC 27853

`CC(C)C[C@H](NC(=O)[C@H](C)NC(=O)[C@H](CC(C)C)NC(=O)[C@H](CCCCN)NC(=O)[C@H](C)NC(=O)[C@H](CC(C)C)NC(=O)[C@H](CCCCN)NC(=O)[C@H](CCCCN)NC(=O)[C@H](C)NC(=O)[C@H](CC(C)C)NC(=O)[C@H](CCCCN)NC(=O)[C@H](CCCCN)NC(=O)[C@H](C)NC(=O)[C@@H](N)Cc1ccccc1)C(N)=O` [FAKKLAKKLAKLAL] showed an MIC [1] of 3.24 µM (≈ 5 µg/mL) and an MIC [2] of 64.8 µM (≈ 99.9 µg/mL).

`CC(C)C[C@H](NC(=O)[C@H](C)NC(=O)[C@H](CCCCN)NC(=O)[C@H](C)NC(=O)[C@H](CC(C)C)NC(=O)[C@H](CCCCN)NC(=O)[C@H](CCCCN)NC(=O)[C@H](C)NC(=O)[C@H](CC(C)C)NC(=O)[C@H](CCCCN)NC(=O)[C@H](C)NC(=O)[C@H](CC(C)C)NC(=O)[C@H](CCCCN)NC(=O)[C@H](CCCCN)NC(=O)[C@H](C)NC(=O)[C@@H](N)Cc1ccccc1)C(N)=O` [FAKKLAKLAKKLAKAL] was tested, and the MIC [1] was over 115 µM and the MIC [2] was 115 µM (≈ 200 µg/mL).

`CC(C)C[C@H](NC(=O)[C@H](CCCCN)NC(=O)[C@H](CC(C)C)NC(=O)[C@H](CCCCN)NC(=O)[C@H](CC(C)C)NC(=O)[C@H](C)NC(=O)[C@H](CCCCN)NC(=O)[C@H](C)NC(=O)[C@H](CC(C)C)NC(=O)[C@H](CC(C)C)NC(=O)[C@H](CCCCN)NC(=O)[C@H](C)NC(=O)[C@@H](N)Cc1ccccc1)C(N)=O` [FAKLLAKALKLKL] showed an MIC [1] of 6.86 µM (≈ 9.99 µg/mL) and an MIC [2] of 17.2 µM (≈ 25 µg/mL).

`CC(C)C[C@H](NC(=O)[C@H](CCCCN)NC(=O)[C@H](C)NC(=O)[C@H](CC(C)C)NC(=O)[C@H](CC(C)C)NC(=O)[C@H](CCCCN)NC(=O)[C@H](C)NC(=O)[C@@H](N)Cc1ccccc1)C(=O)N[C@@H](C)C(=O)N[C@@H](CCCCN)C(=O)N[C@@H](C)C(=O)N[C@@H](CCCCN)C(=O)N[C@@H](C)C(N)=O` [FAKLLAKLAKAKA] was tested, and the MIC [1] was 72.8 µM (≈ 99.9 µg/mL) and the MIC [2] was 146 µM (≈ 200 µg/mL).

For `CC(C)C[C@H](NC(=O)[C@H](C)NC(=O)[C@H](CCCCN)NC(=O)[C@H](CCCCN)NC(=O)[C@H](CC(C)C)NC(=O)[C@H](C)NC(=O)[C@H](CCCCN)NC(=O)[C@H](Cc1ccccc1)NC(=O)[C@H](CC(C)C)NC(=O)[C@H](CC(C)C)NC(=O)[C@H](CCCCN)NC(=O)[C@H](C)NC(=O)[C@@H](N)Cc1ccccc1)C(N)=O` [FAKLLFKALKKAL], the MIC [1] was 33.5 µM (≈ 50 µg/mL) and the MIC [2] was 134 µM (≈ 200 µg/mL).

In the case of `CSCC[C@H](NC(=O)[C@H](CCCN=C(N)N)NC(=O)[C@H](Cc1c[nH]c2ccccc12)NC(=O)[C@H](CCC(N)=O)NC(=O)[C@H](Cc1c[nH]c2ccccc12)NC(=O)[C@H](CCCN=C(N)N)NC(=O)[C@H](CCCN=C(N)N)NC(=O)[C@H](C)NC(=O)[C@H](CCCCN)NC(=O)[C@@H](N)Cc1ccccc1)C(=O)N[C@@H](CCCCN)C(=O)N[C@@H](CCCCN)C(=O)O` [FKARRWQWRMKK], the MIC [3] is reported as 116 µM (≈ 200 µg/mL) and the MIC [4] is reported as 58.2 µM (≈ 100 µg/mL).

`CC[C@H](C)[C@H](NC(=O)[C@@H](NC(=O)[C@@H](NC(=O)[C@H](CCCCN)NC(=O)[C@@H](N)Cc1ccccc1)C(C)C)C(C)C)C(=O)N[C@@H](CO)C(=O)N[C@@H](CCCCN)C(=O)N1CCC[C@H]1C(=O)NCC(=O)N[C@@H](CC(C)C)C(=O)N[C@@H](CO)C(=O)N[C@H](C(=O)N[C@@H](CCCN=C(N)N)C(=O)N[C@H](C(=O)NCC(=O)N[C@H](C(=O)N[C@@H](C)C(=O)N[C@@H](CC(C)C)C(=O)N[C@H](C(=O)N[C@H](C(=O)O)[C@@H](C)O)C(C)C)[C@@H](C)O)C(C)C)C(C)C` [FKVVISKPGLSVRVGTALVT] gave an MIC (Bacillus cereus) of at least 61.8 µM and an MIC (Escherichia coli) of over 61.8 µM.

`CC[C@H](C)[C@H](NC(=O)[C@@H](NC(=O)[C@@H]1CCCN1C(=O)[C@@H](NC(=O)[C@@H]1CCCN1C(=O)[C@H](CCCCN)NC(=O)[C@H](CCCCN)NC(=O)[C@H](CO)NC(=O)CN)C(C)C)[C@@H](C)CC)C(=O)N[C@@H](Cc1ccc(O)cc1)C(=O)N[C@H]1CSSC[C@@H](C(=O)N[C@@H](CCC(N)=O)C(=O)N[C@@H](CCCN=C(N)N)C(=O)N[C@@H](CCSC)C(=O)O)NC(=O)[C@H](CCCCN)NC(=O)CNC(=O)[C@H](CO)NC(=O)[C@H](CCCN=C(N)N)NC(=O)[C@H](CCCN=C(N)N)NC(=O)[C@H](CCC(N)=O)NC1=O` [GSKKPVPIIYCQRRSGKCQRM] gave an MIC [3] of 13.1 µM (≈ 32 µg/mL) and an MIC [5] of 13.1 µM (≈ 32 µg/mL).

`CC[C@H](C)[C@H](NC(=O)[C@H](CCSC)NC(=O)[C@H](CO)NC(=O)[C@@H](NC(=O)[C@H](CC(C)C)NC(=O)[C@H](CO)NC(=O)[C@@H]1CCCN1C(=O)[C@@H](NC(=O)[C@@H](NC(=O)[C@H](CCCCN)NC(=O)[C@H](CO)NC(=O)[C@H](C)NC(=O)[C@@H](NC(=O)[C@H](CCCN=C(N)N)NC(=O)CNC(=O)[C@@H](NC(=O)[C@H](Cc1ccccc1)NC(=O)[C@H](CO)NC(=O)[C@@H](N)CC(C)C)C(C)C)C(C)C)C(C)C)C(C)C)[C@@H](C)CC)C(=O)N[C@@H](CCCCN)C(=O)O` [LSFVGRVASKVVPSLISMIK] was tested, and the MIC (Bacillus cereus) was at least 120 µM and the MIC (Escherichia coli) was 120 µM (≈ 256 µg/mL).

With `CC[C@H](C)[C@H](NC(=O)[C@H](C)NC(=O)[C@H](CCCN=C(N)N)NC(=O)[C@H](Cc1ccc(O)cc1)NC(=O)[C@H](CC(C)C)NC(=O)[C@H](CC(N)=O)NC(=O)[C@H](Cc1ccc(O)cc1)NC(=O)CNC(=O)[C@H](C)NC(=O)[C@@H](NC(=O)[C@@H](NC(=O)[C@@H](NC(=O)[C@H](CCCN=C(N)N)NC(=O)[C@@H](NC(=O)[C@@H](NC(=O)[C@@H](NC(=O)[C@@H]1CCCN1)C(C)C)C(C)C)[C@@H](C)CC)[C@@H](C)O)C(C)C)C(C)C)C(=O)N[C@@H](CCCCN)C(=O)N[C@@H](CCCCN)C(=O)N[C@@H](CCCCN)C(=O)O` [PVVIRTVVAGYNLYRAIKKK] the MIC [6] was 16.4 µM (≈ 37.5 µg/mL) and the MIC [7] was 43.7 µM (≈ 100 µg/mL).

For `CC[C@H](C)[C@H](NC(=O)[C@H](CCC(=O)O)NC(=O)[C@H](CCC(=O)O)NC(=O)[C@H](CO)NC(=O)[C@H](CC(C)C)NC(=O)[C@H](CC(C)C)NC(=O)[C@H](Cc1c[nH]c2ccccc12)NC(=O)[C@H](CC(N)=O)NC(=O)[C@H](CCC(=O)O)NC(=O)CNC(=O)[C@H](CC(N)=O)NC(=O)[C@H](CCCCN)NC(=O)[C@H](CC(C)C)NC(=O)[C@H](CO)NC(=O)[C@H](Cc1ccc(O)cc1)NC(=O)[C@@H]1CCCN1)C(=O)N[C@H](C(=O)N[C@@H](CCCN=C(N)N)C(=O)N[C@@H](Cc1ccc(O)cc1)C(=O)N1CCC[C@H]1C(=O)O)[C@@H](C)CC` [PYSLKNGENWLLSEEIIRYP], the MIC (Bacillus cereus) was at least 106 µM and the MIC (Escherichia coli) was over 106 µM.

`CC[C@H](C)[C@H](NC(=O)[C@H](CCCN=C(N)N)NC(=O)[C@H](CCCN=C(N)N)NC(=O)[C@@H]1CCCN1C(=O)[C@@H]1CCCN1C(=O)[C@H](CCCN=C(N)N)NC(=O)[C@@H]1CCCN1C(=O)[C@H](CCCN=C(N)N)NC(=O)[C@@H]1CCCN1C(=O)[C@H](CC(C)C)NC(=O)[C@H](Cc1ccc(O)cc1)NC(=O)[C@@H]1CCCN1C(=O)[C@@H]1CCCN1C(=O)[C@H](CCCCN)NC(=O)[C@@H]1CCCN1C(=O)[C@@H](N)C(C)C)C(=O)N[C@@H](Cc1ccc(O)cc1)C(=O)N[C@@H](CC(N)=O)C(=O)N[C@@H](CCCN=C(N)N)C(N)=O` [VPKPPYLPRPRPPRRIYNR] showed an MIC (Escherichia coli UB1005) of 2.11 µM (≈ 5 µg/mL), an MIC [7] of 3.37 µM (≈ 8 µg/mL) and an MIC [8] of 19.1 µM (≈ 45.2 µg/mL).

`CC[C@H](C)[C@H](NC(=O)[C@H](CCCN=C(N)N)NC(=O)[C@H](CCCN=C(N)N)NC(=O)[C@@H]1CCCN1C(=O)[C@H](Cc1c[nH]c2ccccc12)NC(=O)[C@H](CCCN=C(N)N)NC(=O)[C@@H]1CCCN1C(=O)[C@H](CCCN=C(N)N)NC(=O)[C@@H]1CCCN1C(=O)[C@H](CC(C)C)NC(=O)[C@H](Cc1ccc(O)cc1)NC(=O)[C@@H]1CCCN1C(=O)[C@@H]1CCCN1C(=O)[C@H](CCCCN)NC(=O)[C@H](CCCN=C(N)N)NC(=O)[C@@H](N)C(C)C)C(=O)N[C@@H](Cc1ccc(O)cc1)C(=O)N[C@@H](CC(N)=O)C(=O)N[C@@H](CCCN=C(N)N)C(N)=O` [VRKPPYLPRPRWPRRIYNR] showed an MIC (Escherichia coli UB1005) of 0.516 µM (≈ 1.3 µg/mL), an MIC [7] of 0.198 µM (≈ 0.5 µg/mL) and an MIC [8] of 2.24 µM (≈ 5.65 µg/mL).

`CC(C)C[C@H](NC(=O)[C@H](CCCCN)NC(=O)[C@H](CCCCN)NC(=O)[C@H](CC(C)C)NC(=O)[C@H](CC(C)C)NC(=O)[C@H](CCCCN)NC(=O)[C@H](CCCCN)NC(=O)[C@H](CC(C)C)NC(=O)[C@H](CCCCN)NC(=O)[C@H](CCCCN)NC(=O)[C@H](CC(C)C)NC(=O)[C@H](CC(C)C)NC(=O)[C@H](CCCCN)NC(=O)[C@H](CCCCN)NC(=O)[C@H](CC(C)C)NC(=O)[C@H](CC(C)C)NC(=O)[C@H](CCCCN)NC(=O)[C@@H](N)Cc1ccc(O)cc1)C(N)=O` [YKLLKKLLKKLKKLLKKL] was tested, and the MIC [9] was 27.9 µM (≈ 62.4 µg/mL), the MIC [10] was 18.1 µM (≈ 40.6 µg/mL) and the MIC [11] was 6.31 µM (≈ 14.1 µg/mL).

With `CC(C)C[C@H](NC(=O)[C@H](CCCCN)NC(=O)[C@H](Cc1ccccc1)NC(=O)[C@H](CC(C)C)NC(=O)[C@H](CC(C)C)NC(=O)CNC(=O)[C@H](CCCCN)NC(=O)[C@H](CC(C)C)NC(=O)[C@H](CCCCN)NC(=O)[C@@H]1CCCN1C(=O)[C@H](CC(C)C)NC(=O)[C@H](CC(C)C)NC(=O)[C@H](CC(C)C)NC(=O)[C@H](CCCCN)NC(=O)[C@H](CC(C)C)NC(=O)[C@H](CC(C)C)NC(=O)[C@H](CCCCN)NC(=O)[C@@H](N)Cc1ccc(O)cc1)C(N)=O` [YKLLKLLLPKLKGLLFKL] the MIC [9] was 69.6 µM (≈ 149 µg/mL), the MIC [10] was 1.14 µM (≈ 2.45 µg/mL) and the MIC [11] was 3.96 µM (≈ 8.48 µg/mL).
